Assay results: patent US11229651B2, “Prophylaxis and treatment of a neurodegenerative disease not based on a protein-folding disorder” (Eberhard Karls Universität Tübingen Medizinische Fakultät, priority 2013, dated 2022)

What was measured:
[1] = system: photoreceptors of cultivated retinas from rats mutated in the rhodopsin (P23H); test: TUNEL assay on retinal organ cultures from P23H rhodopsin transgenic rats; format: cell-based, rat; conditions: for amount of dying photoreceptors (percentage of TUNEL positive cells in the outer nuclear layer (ONL) vs total nuclei in the ONL): P23H mutant retinal cultures, PN9 + 6 days in vitro, compared with untreated and DMSO treated controls, FIG. 3A; for survival of photoreceptors in radial sections: P23H retinal organ cultures, compared with DMSO control, FIG. 2
Excerpt: Homozygous P23H rhodopsin transgenic rats (produced by Chrysalis DNX Transgenic Sciences, Princeton, N.J., United States of America) of the line Tg (P23H) 1 Lay (P23H-1) were kindly provided by Dr. M. M. LaVail (University of California, San Francisco, Calif., United States of America) and bred in the Animal Housing Facility in the Center for Ophthalmology in Tübingen. Heterozygous P23H rats were employed, obtained by crossing with wt, CD rats (CDH IGS rat; Charles River, Germany) to reflect the genetic background of autosomal-dominant retinitis pigmentosa (ADRP).
Retinas of postnatal day 9 (PN9) of P23H transgenic rats were cultivated for six days (DIVE) that correspond to PN15, i.e. the peak of degeneration in in vivo aged-matched mutants. The day of birth was denoted as P0. For radial sections, cultures were immersed in 4% paraformaldehyde in 0.1 M phosphate buffer (PB; pH 7.4) for 30 minutes at 4° C. and embedded in cryomatrix (Tissue-Tek, Leica, Bensheim, Germany). The radial sections (15 μm thick) were processed immediately or stored at […]
The retinas were isolated from nine-days-old P23H rats with the retinal pigment epithelium (RPE) attached essentially as described previously in Caffe et al. (2001), “Mouse retina explants after long-term culture in serum free medium”, J. Chem. Neuroanat. 22(4): 263-73, and Arango-Gonzalez et al. (2010), “In vivo and in vitro devel-opment of S- and M-cones in rat retina”, Invest. Ophthalmol. Vis. Sci. 2010 October; 51(10):5320-7. Briefly, the eyes of decapitated rats were enucleated in aseptic environment and pretreated with 12% proteinase K (ICN Biomedicals Inc., OH, United States of America) for 15 minutes at 37° C. in R16 serum-free culture medium (Invitrogen Life Technologies, Paisley, United Kingdom). The enzymatic digestion was stopped by the addition of 20% fetal bovine serum. Retina and RPE were dissected and four radial sections were made to flatten the tissue. The tissue was transferred to a 0.5 μm polycar-bonate membrane (Corning Life Sciences, Lowell, Mass., United States of America), with the RPE facing the membrane. The inserts were placed into six well culture plates and incubated with R16 nutrient medium at 36.5° C. The retina was left in R16 culture medium without a treatment for one day to allow an adaptation to the culture conditions. The medium was changed at DIV1, DIV3, and DIV5, and the new medium either contained ML240 (1 μM or […]) or EerII (1 μM or 20 μM). Both components were pre-diluted in dimethyl sulfoxide (DMSO, Sigma). For controls, the same amount of DMSO (0.05% or 1% respectively) was diluted in culture medium. The cultures were fixed at DIVE and analyzed as radial sections. […]

[2] = system: photoreceptors of cultivated retinas from wild-type rats; test: TUNEL assay on retinal organ cultures from wild-type rats; format: cell-based, rat; conditions: for reduction of percentage of TUNEL positive cells in the ONL: WT cultivated retinas, compared with controls, FIG. 3B, **p<0.01, ***p<0.001; for survival of photoreceptors in radial sections: wild-type retinal organ cultures, compared with DMSO control, FIG. 2

SMILES | amount of dying photoreceptors (percentage of TUNEL positive cells in the outer nuclear layer (ONL) vs total nuclei in the ONL) [1] | survival of photoreceptors in radial sections [1] | reduction of percentage of TUNEL positive cells in the ONL [2] | survival of photoreceptors in radial sections [2]
CC1(C)C(N(O)C(=O)Nc2ccc(Cl)cc2)N(c2ccc(Cl)cc2)C(=O)N1CC(=O)N/N=C/C=C/c1ccc([N+](=O)[O-])o1 (centres unmarked) [EerI, Eeyarestatin I] | significantly reduce | significant increase of the survival | not significantly | significant increase of the survival
COc1cccc2c(NCc3ccccc3)nc(-n3c(N)nc4ccccc43)nc12 [ML240] | significantly reduce | significant increase of the survival | significantly | significant increase of the survival
